Measurements published in publication PMC4406241 (Current eye research, 2009).

Biological target: T1, Breast Cancer Resistance Protein (BCRP) (Homo sapiens, UniProt Q9UNQ0)
T1 sequence (Q9UNQ0 1-655): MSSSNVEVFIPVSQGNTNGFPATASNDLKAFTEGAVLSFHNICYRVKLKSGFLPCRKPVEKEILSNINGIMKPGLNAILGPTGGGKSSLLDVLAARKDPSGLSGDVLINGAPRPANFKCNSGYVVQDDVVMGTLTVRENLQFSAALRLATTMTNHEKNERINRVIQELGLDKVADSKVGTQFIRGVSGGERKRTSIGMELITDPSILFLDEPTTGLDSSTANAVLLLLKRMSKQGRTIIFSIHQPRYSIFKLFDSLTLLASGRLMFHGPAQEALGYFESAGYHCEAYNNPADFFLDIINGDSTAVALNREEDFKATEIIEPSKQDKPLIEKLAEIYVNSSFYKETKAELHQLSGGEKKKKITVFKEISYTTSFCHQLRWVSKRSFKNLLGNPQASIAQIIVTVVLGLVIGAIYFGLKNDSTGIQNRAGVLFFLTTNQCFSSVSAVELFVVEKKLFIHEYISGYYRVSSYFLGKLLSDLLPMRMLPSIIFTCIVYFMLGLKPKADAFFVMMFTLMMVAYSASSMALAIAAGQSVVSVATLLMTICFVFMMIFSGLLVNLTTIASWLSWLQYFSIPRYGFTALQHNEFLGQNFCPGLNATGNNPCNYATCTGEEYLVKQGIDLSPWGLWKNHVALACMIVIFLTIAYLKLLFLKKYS
Test: inhibition of [3H]-MTX efflux from MDCKII-BCRP transfected cells and SV40-HCEC
Format: cell-based

**Q.** How did the IC50 turn out when `COc1ccc2c3c([nH]c2c1)[C@H](C=C(C)C)N1C(=O)[C@@H]2CCCN2C(=O)[C@@H]1C3` [FTC, Fumetremorgin C] was run?
**A.** ~10 µM
